The source of these data is patent publication US9440950B2, “Arginine methyltransferase inhibitors and uses thereof” (Epizyme, Inc., priority 2013, dated 2016).

The EC30 is the concentration needed for an effect of 30%. A lower EC30 goes with an effect from little substance.

This experiment relates to Mono-Methyl Arginine in RKO cells. The experiment in a line: RKO Methylation Assay (In Cell Western). It is filed as cell-based. The conditions noted are these: Homo sapiens, 72 hours, percent activation. From the text:
RKO Methylation Assay RKO adherent cells were purchased from ATCC (American Type Culture Collection), Manassas, Va., USA. DMEM/Glutamax medium, penicillin-streptomycin, heat inactivated fetal bovine serum, 0.05% trypsin and D-PBS were purchased from Life Technologies, Grand Island, N.Y., USA. Odyssey blocking buffer, 800CW goat anti-rabbit IgG (H+L) antibody, and Licor Odyssey infrared scanner were purchased from Licor Biosciences, Lincoln, Nebr., USA. Mono-methyl arginine antibody was purchased from Cell Signaling Technology, Danvers, Mass., USA. Methanol was purchased from VWR, Franklin, Mass., USA. 10% Tween 20 was purchased from KPL, Inc., Gaithersburg, Md., USA. DRAQ5 was purchased from Biostatus Limited, Leicestershire, UK. RKO adherent cells were maintained in growth medium (DMEM/Glutamax medium supplemented with 10% v/v heat inactivated fetal bovine serum and 100 units/mL penicillin-streptomycin) and cultured at 37° C. under 5% CO2. Cell Treatment, In Cell Western (ICW) for Detection of Mono-Methyl Arginine and DNA Content. RKO cells were seeded in assay medium at a concentration of 20,000 cells per mL to a poly-D-lysine coated 384 well culture plate (BD Biosciences 356697) with 50 μL per well. Compound (100 nL) from a 96-well source plate was added directly to 384 well cell plate. Plates were incubated at 37° C., 5% CO2 for 72 hours. After three days of incubation, plates were brought to room temperature outside of the incubator for ten minutes and blotted on paper towels to remove cell media. 50 μL of ice cold 100% methanol was added directly to each well and incubated for 30 min at room temperature. After 30 min, plates were transferred to a Biotek EL406 plate washer and washed 2 times with 100 μL per well of wash buffer (IX PBS). Next 60 μL per well of Odyssey blocking buffer (Odyssey Buffer with 0.1% Tween 20 (v/v)) were added to each plate and incubated 1 hour at room temperature. Blocking buffer was removed and 20 μL per well of primary antibody was added (mono-methyl arginine diluted 1:200 in Odyssey buffer with 0.1% Tween 20 (v/v)) and plates were incubated overnight (16 hours) at 4° C. Plates were washed 5 times with 100 μL per well of wash buffer. Next 20 μL per well of secondary antibody was added (1:200 800CW goat anti-rabbit IgG (H+L) antibody, 1:1000 DRAQ5 (Biostatus limited) in Odyssey buffer with 0.1% Tween 20 (v/v)) and incubated for 1 hour at room temperature. The plates were washed 5 times with 100 μL per well wash buffer then 2 times with 100 μL per well of water. Plates were allowed to dry at room temperature then imaged on the Licor Odyssey machine which measures integrated intensity at 700 nm and 800 nm wavelengths. Both 700 and 800 channels were scanned. Calculations: First, the ratio for each well was determined by: Each plate included fourteen control wells of DMSO only treatment (minimum activation) as well as fourteen control wells for maximum activation treated with 20 μM of a reference compound. The average of the ratio values for each control type was calculated and used to determine the percent activation for each test well in the plate. Reference compound was serially diluted three-fold in DMSO for a total of nine test concentrations, beginning at 20 μM. Percent activation was determined and EC30 curves were generated using triplicate wells per concentration of compound.
`CCN(CC(C)C)c1ccc(-c2n[nH]cc2CN(C)CCNC)cn1` [Compound 36] showed a 30% effect concentration (EC30) of 3.01 to 12 µM.

`CNCCN(C)Cc1c[nH]nc1-c1ccc(N(CC(C)C)CC(C)C)nc1` [Compound 31] returned a 30% effect concentration (EC30) greater than 12 µM. For `CN(CCN)Cc1c[nH]nc1-c1ccncc1` [Compound 9], the EC30 was 3.01 to 12 µM.

`COc1ccncc1-c1n[nH]cc1CN(C)CCN` [Compound 16] came in with a 30% effect concentration (EC30) greater than 12 µM.

Compound `CC(C)CNc1ccc(-c2n[nH]cc2CN(C)CCN)cn1` [Compound 26] yielded an EC30 greater than 12 µM. `CN(CCN)Cc1c[nH]nc1-c1ccc(NCc2ccccc2)nc1` [Compound 25]: the 30% effect concentration (EC30) is 3.01 to 12 µM.

`CNCCN(C)Cc1c[nH]nc1-c1ccc(N(C)C(C)C)nc1` [Compound 33, N^1-((3-(6-(isopropyl(methyl)amino)pyridin-3-yl)-1H-pyrazol-4-yl)methyl)-N^1,N^2-dimethylethane-1,2-diamine] came in with a concentration for an effect of 30% (EC30) of less than 3 µM.

As to `CN(CCN)Cc1c[nH]nc1-c1cncc(C#N)c1` [Compound 18], the concentration for an effect of 30% (EC30) was greater than 12 µM. Compound `CN(CCN)Cc1c[nH]nc1-c1ccc(C(F)(F)F)nc1` [Compound 13, N^1-methyl-N^1-((3-(6-(trifluoromethyl)pyridin-3-yl)-1H-pyrazol-4-yl)methyl)ethane-1,2-diamine] showed a concentration for an effect of 30% (EC30) of less than 3 µM. The figure for `COc1ncccc1-c1n[nH]cc1CN(C)CCN` [Compound 15] is greater than 12 µM. In turn, `CN(CCN)Cc1c[nH]nc1-c1cncc(F)c1` [Compound 7] showed a concentration for an effect of 30% (EC30) greater than 12 µM. The figure for `CN(CCN)Cc1c[nH]nc1-c1ccc(N2CCOCC2)nc1` [Compound 20] is 3.01 to 12 µM; for `COc1ncc(Cl)cc1-c1n[nH]cc1CN(C)CCN` [Compound 14] it is greater than 12 µM; for `CNCCN(C)Cc1c[nH]nc1-c1ccc(N(C)CCC(C)C)nc1` [Compound 30] it is 3.01 to 12 µM. As for `CNCCN(C)Cc1c[nH]nc1-c1ccc(OCC(C)C)nc1` [Compound 35, N^1-((3-(6-iso-butoxypyridin-3-yl)-1H-pyrazol-4-yl)methyl)-N^1,N^2-dimethylethane-1,2-diamine], the EC30 was less than 3 µM. For `CCN(CC)c1ccc(-c2n[nH]cc2CN(C)CCN)cn1` [Compound 24], the concentration for an effect of 30% (EC30) was greater than 12 µM. Under `CN(CCN)Cc1c[nH]nc1-c1ccc(N(C)Cc2ccccc2)nc1` [Compound 23] stands 3.01 to 12 µM; under `CC(C)Oc1ccc(-c2n[nH]cc2CN(C)CCN)cn1` [Compound 22], less than 3 µM; under `COc1cc(-c2n[nH]cc2CN(C)CCN)ccn1` [Compound 11], 3.01 to 12 µM. Under `CNCCN(C)Cc1c[nH]nc1-c1ccc(N(C)CC(C)C)nc1` [Compound 32, N^1-((3-(6-(isobutyl(methyl)amino)pyridin-3-yl)-1H-pyrazol-4-yl)methyl)-N^1,N^2-dimethylethane-1,2-diamine] stands less than 3 µM; under `CCN(CCC(C)C)c1ccc(-c2n[nH]cc2CN(C)CCNC)cn1` [Compound 34, N^1-((3-(6-(ethyl(isopentyl)amino)pyridin-3-yl)-1H-pyrazol-4-yl)methyl)-N^1,N^2-dimethylethane-1,2-diamine], less than 3 µM.

Compound `CN(CCN)Cc1c[nH]nc1-c1cncc(Cl)c1` [Compound 19] had a 30% effect concentration (EC30) of 3.01 to 12 µM. Turning to `Cc1ccncc1-c1n[nH]cc1CN(C)CCN` [Compound 17], the EC30 was greater than 12 µM. For the compound `COc1cc(-c2n[nH]cc2CN(C)CCN)c(Cl)cn1` [Compound 12], the EC30 is greater than 12 µM.

`CC(C)CN(C)c1ccc(-c2n[nH]cc2CN(C)CCN)cn1` [Compound 21] yielded a concentration for an effect of 30% (EC30) of 3.01 to 12 µM. `COc1ccc(-c2n[nH]cc2CN(C)CCN)cn1` [Compound 5] registered an EC30 greater than 12 µM.
